What was measured:
[1] = test system: Vibrio harveyi BB170 strain (AI-2 reporter bacterium); experiment: AI-2 activity inhibitory effect, photogenesis intensity of AI-2 reporter bacterium after addition of DPD; type: cell-based; details: relative to control with only DPD added (=100); 10 min preincubation, 4 h culture at 30° C
Description: The method of screening an improving agent or preventive agent for periodontal disease of the present invention containing mixing a bacterium having an autoinducer-2-mediated quorum sensing system with a test drug and selecting a test drug having an autoinducer-2 activity inhibitory effect as an improving agent or preventive agent for periodontal disease. For example, a Vibrio harveyi BB 170 strain is prepared in a culture medium at 1000- to 10000-fold dilution (preferably 4000- to 5000-fold) and preincubated with a test compound solution at room temperature for 1 to 30 minutes (preferably for 10 minutes). Then, AI-2 was added to the resultant solution, which was subjected to aerobic shaking culture at 30±5° C. Two (2) to six (6) hours later (preferably four (4) hours later), the photogenesis intensity is measured with a chemiluminescence analyzer. The final concentration of AI-2 is from 0.001 to 100 μM (preferably 10 μM). The final concentration of the test compound solutions is from 0.0001 to 0.1% or from 1 to 100 μM. Each concentration is not limited thereto. The photogenesis intensity when a control obtained by adding only the AI-2 is mixed with the test compound solution is measured as a relative value to the photogenesis intensity of control so that the AI-2 activity inhibitory effect of the test compound can be measured. The bacterium having an autoinducer-2-mediated quorum sensing system is not particularly limited. A reporter bacterium which recognizes the autoinducer-2 thereby emitting light is preferred and dental bacteria and periodontal pathogens can also be used. Further, the bacterium having an autoinducer-2-mediated quorum sensing system which is collected from the oral cavity of a subject can also be used as a specimen.
A Vibrio harveyi BB170 strain (cultured in an AB medium at 30° C. overnight) was used as an AI-2 reporter bacterium and it was 4500-fold diluted with an AB culture medium to prepare a reporter bacterium liquid. A reporter bacterium liquid was mixed with each of the test drugs, which was preincubated at room temperature for 10 minutes, followed by addition of DPD and aerobic shaking culture at 30° C. Four (4) hours later, the photogenesis intensity was measured with the chemiluminescence analyzer (LB940 type, manufactured by Berthold Japan co. ltd.). AI-2 was quantified from the measured photogenesis intensity in the same manner as described in Example 1.
The amount of AI-2 was a relative value to the amount of DPD of the control (the amount of AI-2) when one obtained by adding only the DPD without adding the test drugs was used as a control.

syrian hamsters = experiment: Alveolar bone resorption in floss-tied mandibular first molars of syrian hamsters; type: in vivo; details: syrian hamster; for Alveolar bone resorption depth (mm): 200 μL of 10 μM solution dropwise to floss-tied first molars twice a day for two weeks, control 2.87; for absorption of the alveolar bone: added dropwise to the oral cavity for two weeks
Description: The mandibule of syrian hamsters (three males, 7 weeks old) was extracted under anesthesia and a photograph was taken under the stereoscopic microscope. An evaluation site is the lingual surface of extraction mandibule. The obtained photographs were subjected to image analysis and a vertical distance from the first molar mesial cusp tip to the alveolar tip was measured.
Floss was tied around the left and right mandibular first molar teeth of other syrian hamsters (three males, 7 weeks old). From the next day on, 200 μL of a PBS solution containing 1% DMSO (concentration: 10 μM) of Compound 1 or 2 above was added dropwise to the same tied sites twice a day for two weeks and they were bred.
After the end of breeding, the mandibule was extracted under anesthesia and photographs were taken under the stereoscopic microscope. An evaluation site is the lingual surface of extraction mandibule and the taken photographs were subjected to image analysis. […] a vertical distance from the first molar mesial cusp tip to the alveolar tip was measured.
The alveolar bone resorption depth (a value before addition is subtracted from a value after addition for two weeks) was measured from the vertical distance from the first molar mesial cusp tip to the alveolar tip before addition of the test drug and after addition of the test drug for two weeks.

SMILES	AI-2 amount (relative value) [1]	Alveolar bone resorption depth (mm) (syrian hamsters)	absorption of the alveolar bone (syrian hamsters)
COc1ccc(C2OC(=O)C=C2Br)cc1 (centres unmarked) [Compound 1, 4-bromo-5-(4-methoxyphenyl)-2(5H)-furanone]	29.6	2.50	suppressed
O=C1OC(O)C(Br)=C1Br (centres unmarked) [Compound 2, 3,4-dibromo-5-hydroxy-2(5H)-furanone]	0	2.62	suppressed
COc1ccc(C2(OC)OC(=O)C=C2Br)cc1 (centres unmarked) [Compound 3, 4-bromo-5-methoxy-5-(4-methoxyphenyl)-2(5H)-furanone]	62.5	–	–
COc1ccc(C2(Oc3ccc(C(=O)O)cc3)OC(=O)C=C2Br)cc1 (centres unmarked) [Compound 4, 4-{[3-bromo-2-(4-methoxyphenyl)-5-oxo-2,5-dihydro-2-furanyl]oxy}benzoate]	76.0	–	–
CC1=C(O)C(=O)C(C)O1 (centres unmarked) [Compound 5, 4-hydroxy-2,5-dimethyl-3(2H)-furanone, reference compound]	77.0	–	–
COC1(c2ccccc2)OC=C(c2ccccc2)C1=O (centres unmarked) [Compound 6, 2-methoxy-2,4-diphenyl-3(2H)-furanone, reference compound]	88.9	–	–
CCCCCC1=CCCC1=O [Compound 7, 2-pentyl-2-cyclopentene-1-one, reference compound]	63.4	–	–

Reference: patent publication US8568986B2, “Method of selecting an agent that improves periodontal disease” (Kao Corporation, priority 2009, dated 2013)
